In US9422292B2, “Bromodomain inhibitors and uses thereof” (Constellation Pharmaceuticals, Inc., priority 2011, dated 2016):
pIC50: −log10 of the molar value. Like-named read-outs stand apart in the source and are kept apart here.

Assays:
BRD4 (BD1) = target: T1, BRD4 (BD1) (Homo sapiens, UniProt O60885); assay: BRD4 AlphaLisa binding assay
T1 construct: His; made in house
Description: A. IC50 Measurements for Inhibitors Using BRD4 AlphaLisa Binding Assay.
Specifically, in a 384 well ProxiPlate BRD4 (BD1) (30 nM final) was combined with peptide (200 nM final) in 40 mM HEPES (pH 7.0), 40 mM NaCl, 1 mM DTT, 0.01% (w/v) BSA, and 0.008% (w/v) Brij-35 either in the presence of DMSO (final 1.2% DMSO) or compound dilution series in DMSO. After 20 minute incubation at room temperature Alpha streptavidin donor beads and AlphaLisa anti-Flag acceptor beads were added to a final concentration of 10 ug/mL each. After three hours equilibration plates were read on an Envision instrument and IC50s calculated using a four parameter non-linear curve fit.

[1] = test system: IL-6 secretion in THP-1 cells; assay: Cell-based IL-6 quantification assay (ELISA, Mesoscale) in LPS-treated THP-1 cells; settings: Homo sapiens, LPS 4 μg/mL, 16 h, ELISA value/CellTiter-Glo ratio
Description: C. Cell-Based IL-6 Quantification Assay (ELISA, Mesoscale Assay):
100,000 THP-1 cells were seeded in RPMI1640-10% FBS in 96-well plates. LPS (E. Coli Invitrogen) in RPMI−10% FBS at a final concentration of 4 μg/mL was added to the wells and the cells are then incubated in the presence of various concentrations of compounds for 16 h. Plates are spun ([…], 5 min), an aliquot of 25 uL supernatant is transferred in to an ELISA plate (Mesoscale technology, MSD) and the detection of IL-6 is performed using manufacturer's instructions. The amount of cells in each well is assessed using CellTiter-Glo® (Promega). The ratio of ELISA value/CellTiter-Glo value is used to calculate the percent of inhibition of IL-6 secretion.

[2] = test system: MYC mRNA in MV4:11 (AML) cells; assay: cMyc RNA quantification assay (QuantiGene) in MV4:11 cells; assay type: cell-based; settings: Homo sapiens, 4 h, QuantiGene 2.0
Description: B. cMyc RNA Quantification Assay (QuantiGene® Assay):
MV4:11 (AML) cells were seeded in a 96-well plate and incubated in the presence of various concentrations of compounds for 4 h. Relative mRNA levels were quantitated by using QuantiGene 2.0 assay (Affymetrix) according to the manufacturer's recommendation. Signals were detected by using an Envision plate reader (Perkin-Elmer). Biological duplicates were averaged and normalized to vehicle (DMSO) control to calculate percent MYC mRNA levels.

[3] = BRD4 (BD1) 30 nM, biotinylated H4-tetraacetyl peptide 200 nM, read-out: BRD4 AlphaLisa

SMILES | pIC50 (BRD4 (BD1); [3]) | pIC50 [1] | pIC50 [2] | pIC50 (BRD4 (BD1))
Cc1nnc2n1-c1ccc(C(=O)N3CCCC3)cc1N(c1ccc(Cl)cc1)C[C@H]2C [Compound 53, 4-R-4H-[1,2,4]triazolo[4,3-a][1,5]benzodiazepine,5,6-dihydro-1,4-dimethyl-8-(pyrrolidine-1-carbonyl)-6-(4-chloro-phenyl)] | 6.00 to 7.00 | 6.00 to 7.00 | 5.00 to 6.00 | –
Cc1nnc(-c2ccc3c(c2)N(c2ccc(Cl)cc2)C[C@@H](C)c2nnc(C)n2-3)o1 [Compound 49, 4-R-4H-[1,2,4]triazolo[4,3-a][1,5]benzodiazepine,5,6-dihydro-1,4-dimethyl-8-(5-methyl-1,3,4-oxadiazol-2-yl)-6-(4-chloro-phenyl)] | > 7.00 | > 7.00 | > 7.00 | –
Cc1nnc2n1-c1ccc(-c3cnn(C)n3)cc1N(c1ccc(Cl)cc1)C[C@H]2C [Compound 48, 4H-[1,2,4]triazolo[4,3-a][1,5]benzodiazepine, 5,6-dihydro-(4R)-1,4-dimethyl-8-(2-methyl-2H-1,2,3-triazole-4-yl)-6-(4-chloro-phenyl)] | > 7.00 | > 7.00 | > 7.00 | –
Cc1nnc2n1-c1ccc(S(C)(=O)=O)cc1N(c1ccc(Cl)cc1)C[C@H]2C [Compound 60, 4H-[1,2,4]Triazolo[4,3-a][1,5]benzodiazepine,5,6-dihydro-(4R)-1,4-dimethyl-8-methylsulfonyl-6-(4-chloro-phenyl)] | 6.00 to 7.00 | 6.00 to 7.00 | 5.00 to 6.00 | –
Cc1nnc2n1-c1ccc(Br)cc1N(c1ccc(S(C)(=O)=O)cc1)C[C@H]2C [Compound 77, (R)-8-bromo-1,4-dimethyl-6-(4-(methylsulfonyl)phenyl)-5,6-dihydro-4H-benzo[b][1,2,4]triazolo[4,3-d][1,4]diazepine] | 5.00 to 6.00 | < 6.00 | 5.00 to 6.00 | –
Cc1nnc2n1-c1ccc(-c3ccc(N)nc3)cc1N(c1ccc(C#N)cc1)CC2 [Compound 16, 4H-[1,2,4]triazolo[4,3-a][1,5]benzodiazepine, 5,6-dihydro-1-methyl-8-(6-aminopyridin-3-yl)-6-(4-cyano-phenyl)] | 6.00 to 7.00 | 6.00 to 7.00 | 6.00 to 7.00 | –
Cc1nnc2n1-c1ccccc1N(c1ccc(Cl)cc1)CC2(C)C [Compound 3, 6-(4-chlorophenyl)-1,4,4-trimethyl-5,6-dihydro-4H-benzo[b][1,2,4]triazolo[4,3-d][1,4]diazepine] | – | 6.00 to 7.00 | 5.00 to 6.00 | 6.00 to 7.00
Cc1nnc2n1-c1ccc(-c3cn(C)nn3)cc1N(c1ccc(Cl)cc1)C[C@H]2C [Compound 64, 4H-[1,2,4]Triazolo[4,3-a][1,5]benzodiazepine, 5,6-dihydro-1,4-dimethyl-8-(1-methyl-2H-1,2,3-triazole-4-yl)-6-(4-chloro-phenyl)] | > 7.00 | > 7.00 | > 7.00 | –
Cc1nnc2n1-c1ccc(-c3ncc(C(=O)O)cn3)cc1N(c1ccc(Cl)cc1)CC2 [Compound 24, 4H-[1,2,4]triazolo[4,3-a][1,5]benzodiazepine, 5,6-dihydro-1-methyl-8-(5-(carboxy)pyrimidin-2-yl)-6-(4-chloro-phenyl)] | > 7.00 | < 6.00 | 5.00 to 6.00 | –
Cc1ncn(-c2ccc3c(c2)N(c2ccc(Cl)cc2)C[C@@H](C)c2nnc(C)n2-3)n1 [Compound 66, (R)-6-(4-chlorophenyl)-1,4-dimethyl-8-(3-methyl-1H-1,2,4-triazol-1-yl)-5,6-dihydro-4H-benzo[b][1,2,4]triazolo[4,3-d][1,4]diazepine] | > 7.00 | > 7.00 | > 7.00 | –
Cc1nnc2n1-c1ccccc1N(c1ccc(Cl)cc1)CC2 [Compound 2, 6-(4-chlorophenyl)-1-methyl-5,6-dihydro-4H-benzo[b][1,2,4]triazolo[4,3-d][1,4]diazepine] | – | 5.00 to 6.00 | 5.00 to 6.00 | 6.00 to 7.00
Cc1nnc2n1-c1ccc(-c3cnn(C)c3)cc1N(c1ccc(Cl)cc1)C[C@@H]2C [Compound 42, (S)-4H-[1,2,4]triazolo[4,3-a][1,5]benzodiazepine, 5,6-dihydro-1,4-dimethyl-8-(1-methyl-1H-pyrazol-4-yl)-6-(4-chloro-phenyl)] | 6.00 to 7.00 | < 6.00 | 5.00 to 6.00 | –
Cc1ccc(-c2ccc3c(c2)N(c2ccc(Cl)cc2)C[C@H](C)c2nnc(C)n2-3)cn1 [Compound 28, (S)-4H-[1,2,4]triazolo[4,3-a][1,5]benzodiazepine, 5,6-dihydro-1,4-dimethyl-8-(6-methylpyridin-3-yl)-6-(4-chloro-phenyl)] | 5.00 to 6.00 | 5.00 to 6.00 | 5.00 to 6.00 | –
Cc1nnc2n1-c1ccc(-c3cnn(C)n3)cc1N(c1ccc(S(C)(=O)=O)cc1)C[C@@H]2C [Compound 72, (R)-4H-[1,2,4]Triazolo[4,3-a][1,5]benzodiazepine, 5,6-dihydro-1,4-dimethyl-8-(2-methyl-2H-1,2,3-triazole-4-yl)-6-(4-methylsulfonyl-phenyl)] | 6.00 to 7.00 | < 6.00 | 5.00 to 6.00 | –
Cc1nnc2n1-c1ccc(-c3ccc(N)nc3)cc1N(c1ccc(N)nc1)C[C@H]2C [Compound 71, (R)-5,5′-(1,4-dimethyl-4H-benzo[b][1,2,4]triazolo[4,3-d][1,4]diazepine-6,8(5H)-diyl)dipyridin-2-amine] | > 7.00 | 5.00 to 6.00 | 5.00 to 6.00 | –
Cc1nnc2n1-c1ccccc1N(c1ccc(Cl)cc1)CC2C (stereo not drawn) [Compound 1, 6-(4-chlorophenyl)-1,4-dimethyl-5,6-dihydro-4H-benzo[b][1,2,4]triazolo[4,3-d][1,4]diazepine] | – | 6.00 to 7.00 | 6.00 to 7.00 | 6.00 to 7.00
Cc1nnc2n1-c1ccc(-n3cncn3)cc1N(c1ccc(Cl)cc1)C[C@H]2C [Compound 54, (R)-6-(4-chlorophenyl)-1,4-dimethyl-8-(1H-1,2,4-triazol-1-yl)-5,6-dihydro-4H-benzo[b][1,2,4]triazolo[4,3-d][1,4]diazepine] | > 7.00 | > 7.00 | > 7.00 | –
Cc1[nH]c(=O)ccc1-c1ccc2c(c1)N(c1ccc(Cl)cc1)C[C@@H](C)c1nnc(C)n1-2 [Compound 85, (R)-5-(6-(4-chlorophenyl)-1,4-dimethyl-5,6-dihydro-4H-benzo[b][1,2,4]triazolo[4,3-d][1,4]diazepin-8-yl)-6-methylpyridin-2(1H)-one] | 6.00 to 7.00 | < 6.00 | 6.00 to 7.00 | –
Cc1nnc2n1-c1ccc(-c3ccc(C(=O)O)cc3)cc1N(c1ccc(Cl)cc1)CC2 [Compound 20, 4H-[1,2,4]triazolo[4,3-a][1,5]benzodiazepine,5,6-dihydro-1-methyl-8-(4-carboxy-phenyl)-6-(4-chloro-phenyl)] | > 7.00 | 6.00 to 7.00 | 6.00 to 7.00 | –
Cc1nnc2n1-c1ccc(-c3ccc(N)nc3)cc1N(c1ccc(Cl)cc1)C[C@H]2C [Compound 26, (R)-4H-[1,2,4]triazolo[4,3-a][1,5]benzodiazepine, 5,6-dihydro-1,4-dimethyl-8-(6-aminopyridin-3-yl)-6-(4-chloro-phenyl)] | > 7.00 | > 7.00 | > 7.00 | –
Cc1nnc2n1-c1ccc(-c3ccc(=O)[nH]c3)cc1N(c1ccc(Cl)cn1)C[C@H]2C [Compound 82, (R)-5-(6-(5-chloropyridin-2-yl)-1,4-dimethyl-5,6-dihydro-4H-benzo[b][1,2,4]triazolo[4,3-d][1,4]diazepin-8-yl)pyridin-2(1H)-one] | 6.00 to 7.00 | < 6.00 | 6.00 to 7.00 | –
Cc1nnc2n1-c1ccc(-c3ccc(N)nc3)cc1N(c1ccc(Cl)cc1)CC2C (stereo not drawn) [Compound 23, 4H-[1,2,4]triazolo[4,3-a][1,5]benzodiazepine,5,6-dihydro-1,4-dimethyl-8-(6-aminopyridin-3-yl)-6-(4-chloro-phenyl)] | > 7.00 | > 7.00 | > 7.00 | –
Cc1nnc2n1-c1ccc(-c3ccc(N)nc3)cc1N(c1ccc(C(N)=O)cc1)CC2C (stereo in doubt) [Compound 70, (S)-4-(8-(6-aminopyridin-3-yl)-1,4-dimethyl-4H-benzo[b][1,2,4]triazolo[4,3-d][1,4]diazepin-6(5H)-yl)benzamide] | > 7.00 | 5.00 to 6.00 | 5.00 to 6.00 | –
Cc1nnc2n1-c1ccc(-c3ccc(=O)[nH]c3)cc1N(c1ccc(C#N)cc1)C[C@H]2C [Compound 68, (R)-4-(1,4-dimethyl-8-(6-oxo-1,6-dihydropyridin-3-yl)-4H-benzo[b][1,2,4]triazolo[4,3-d][1,4]diazepin-6(5H)-yl)benzonitrile] | > 7.00 | 5.00 to 6.00 | 5.00 to 6.00 | –
